Experimental data as given in ChEMBL document CHEMBL5131397, “Discovery and Optimization of Pyrazole Amides as Inhibitors of ELOVL1” (J Med Chem, 2021).
Activity calls are given as the source filed them. No cut-off for these calls is given here.

Experiments:
[1] = Plasma protein binding in monkey at 5 uM; assay type: ADME, cell-free, Macaca mulatta; conditions: rhesus monkey, read-out: PPB (converted)
[2] = biological target: T1, Very long chain fatty acid elongase 1 (Homo sapiens) (UniProt Q9BW60); test: Inhibition of ELOVL-1 in human HEK2936E cells assessed as reduction in C24:0 lysophosphatidyl choline synthesis at 100 nM in presence of 13C-labeled acetate measured after 48 hrs; assay type: cell-based
T1 sequence (whole entry): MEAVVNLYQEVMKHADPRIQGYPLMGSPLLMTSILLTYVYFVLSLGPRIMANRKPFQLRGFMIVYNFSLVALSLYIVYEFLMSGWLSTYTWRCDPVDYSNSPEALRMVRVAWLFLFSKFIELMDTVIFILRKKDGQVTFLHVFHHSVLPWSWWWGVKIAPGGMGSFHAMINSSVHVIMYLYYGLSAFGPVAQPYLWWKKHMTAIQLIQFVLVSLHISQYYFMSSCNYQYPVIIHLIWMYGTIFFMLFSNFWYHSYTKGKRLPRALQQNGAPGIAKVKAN

[3] = biological target: Rho-associated protein kinase 1 (Homo sapiens) (UniProt Q13464); test: Inhibition of ROCK 1 (unknown origin) at 10 uM
[4] = Reduction in C26:0 LPC level in ABCD1 knock out mouse CNS at 8 mg/kg, po qd measured after 6 months of dosing by LC-MS/MS analysis; assay type: functional; set-up: scale not given: the % may be the effect or the level left; conditions: 4380 h

Chain of Rho-associated protein kinase 1 (Homo sapiens) (Q13464 2-1354 limits assumed): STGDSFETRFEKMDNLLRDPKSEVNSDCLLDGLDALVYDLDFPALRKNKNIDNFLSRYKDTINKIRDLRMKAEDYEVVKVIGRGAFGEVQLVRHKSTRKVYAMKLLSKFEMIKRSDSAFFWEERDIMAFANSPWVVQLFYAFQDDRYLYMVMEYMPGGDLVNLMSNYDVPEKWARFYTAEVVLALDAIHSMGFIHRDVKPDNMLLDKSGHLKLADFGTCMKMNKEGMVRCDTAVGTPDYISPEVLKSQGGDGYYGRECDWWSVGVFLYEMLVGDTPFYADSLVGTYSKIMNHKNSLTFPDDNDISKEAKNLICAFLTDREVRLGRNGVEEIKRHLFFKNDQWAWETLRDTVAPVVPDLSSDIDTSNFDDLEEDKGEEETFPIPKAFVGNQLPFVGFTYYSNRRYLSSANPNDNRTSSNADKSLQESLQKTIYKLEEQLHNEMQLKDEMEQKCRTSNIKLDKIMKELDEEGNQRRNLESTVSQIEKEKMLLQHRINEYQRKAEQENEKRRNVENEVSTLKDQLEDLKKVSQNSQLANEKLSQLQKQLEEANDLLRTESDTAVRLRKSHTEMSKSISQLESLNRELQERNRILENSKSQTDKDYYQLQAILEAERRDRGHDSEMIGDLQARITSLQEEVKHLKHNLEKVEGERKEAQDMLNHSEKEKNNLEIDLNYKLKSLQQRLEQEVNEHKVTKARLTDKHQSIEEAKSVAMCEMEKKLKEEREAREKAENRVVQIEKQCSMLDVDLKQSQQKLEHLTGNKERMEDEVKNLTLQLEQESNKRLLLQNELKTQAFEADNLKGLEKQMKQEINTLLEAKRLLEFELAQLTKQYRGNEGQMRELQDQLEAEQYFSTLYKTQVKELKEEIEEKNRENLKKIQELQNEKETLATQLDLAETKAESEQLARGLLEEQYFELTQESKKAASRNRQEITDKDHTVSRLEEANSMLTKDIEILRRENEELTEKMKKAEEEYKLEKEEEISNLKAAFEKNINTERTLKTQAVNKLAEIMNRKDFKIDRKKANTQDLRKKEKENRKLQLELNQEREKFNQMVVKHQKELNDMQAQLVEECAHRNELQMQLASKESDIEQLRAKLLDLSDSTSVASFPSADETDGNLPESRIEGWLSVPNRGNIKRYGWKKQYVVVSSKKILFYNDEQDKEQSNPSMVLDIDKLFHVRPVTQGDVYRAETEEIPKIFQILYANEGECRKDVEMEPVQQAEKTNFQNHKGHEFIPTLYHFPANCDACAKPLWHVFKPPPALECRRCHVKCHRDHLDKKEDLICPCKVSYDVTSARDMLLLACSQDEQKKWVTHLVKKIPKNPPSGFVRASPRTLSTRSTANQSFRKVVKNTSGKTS

fraction unbound at 5 µM [1]: 0.094
inhibition [2]: Active
inhibition [3]: > 50%
SMILES: O=C(Nc1ccn(-c2ccnc(F)c2)n1)C1(c2ccccc2F)CC1
Activity [4]: 49%
